Experimental data: a compilation of properties of binary mixtures (doi:10.1021/acs.jpcc.8b05573)

Assay: xn = mol fraction of the nth substance listed
Conditions: 100 kPa, x1 = 0.24

O=S(=O)([N-]S(=O)(=O)C(F)(F)F)C(F)(F)F.O=S(=O)([N-]S(=O)(=O)C(F)(F)F)C(F)(F)F.[Mg+2] + CCCC[N+]1(C)CCCC1.O=S(=O)([N-]S(=O)(=O)C(F)(F)F)C(F)(F)F
Conditions	electrical conductivity [S/m]
279.2 K	0.003
282.4 K	0.005
286.1 K	0.006
289.5 K	0.009
293 K	0.013
296.9 K	0.017
300.2 K	0.022
304.4 K	0.031
310.6 K	0.046
317.5 K	0.07
323.8 K	0.096
334.5 K	0.159
345.4 K	0.252
355.5 K	0.346
363.5 K	0.461
372.9 K	0.574
386 K	0.786
400.6 K	1.08
417.1 K	1.44

O=S(=O)([N-]S(=O)(=O)C(F)(F)F)C(F)(F)F.[Li+] + CCCC[N+]1(C)CCCC1.O=S(=O)([N-]S(=O)(=O)C(F)(F)F)C(F)(F)F
Conditions	electrical conductivity [S/m]
272.9 K	0.005
279.8 K	0.01
288.8 K	0.027
295.1 K	0.052
305.1 K	0.098
325.1 K	0.235
338.2 K	0.329
360.2 K	0.633
371.2 K	0.846
385.4 K	1.24
409.4 K	1.88
429.6 K	2.77

O=S(=O)([N-]S(=O)(=O)C(F)(F)F)C(F)(F)F.O=S(=O)([N-]S(=O)(=O)C(F)(F)F)C(F)(F)F.[Zn+2] + CCCC[N+]1(C)CCCC1.O=S(=O)([N-]S(=O)(=O)C(F)(F)F)C(F)(F)F
Conditions	electrical conductivity [S/m]
337.3 K	0.163
344.9 K	0.213
366.8 K	0.399
375.2 K	0.508
391 K	0.805
430.4 K	1.79
449.5 K	2.51

O=S(=O)([N-]S(=O)(=O)C(F)(F)F)C(F)(F)F.[Na+] + CCCC[N+]1(C)CCCC1.O=S(=O)([N-]S(=O)(=O)C(F)(F)F)C(F)(F)F
Conditions	electrical conductivity [S/m]
274.2 K	0.006
283.8 K	0.02
291.9 K	0.041
300.2 K	0.07
308.6 K	0.119
323.4 K	0.223
356.5 K	0.663
362.4 K	0.805
380.6 K	1.24
417.8 K	2.45
434.2 K	3.04
